Values quoted from earlier work as cited in patent US12133911B2, “Formulations to achieve rapid dissolution of drug from spray-dried dispersions in capsules” (Capsugel Belgium NV, priority 2015, dated 2024).

Conditions: molality (moles of solute per unit mass) of a saturated solution in water

Row | Compound | Water Solub.
1 | OC[C@@H](O)[C@@H](O)[C@H](O)[C@@H](O)CO [sorbitol] | 4.56 mol/kg
2 | OC[C@@H](O)[C@@H](O)[C@H](O)[C@H](O)CO [mannitol] | 0.99 mol/kg
3 | OC[C@@H](O)[C@H](O)[C@@H](O)CO [xylitol] | 4.11 mol/kg
4 | [Cl-].[K+] [KCl, potassium chloride] | 9.40 mol/kg
5 | O=C(CO)[C@@H](O)[C@H](O)[C@H](O)CO [fructose] | 3.89 mol/kg
